{"source": "patent US12009562B2", "about": "“High solubility iron hexacyanides” (Lockheed Martin Energy, LLC, priority 2012, dated 2024)", "origin": "cited, not measured here", "data": [{"smiles": "O.O.O.O.O.O.O.O.O.O.[C-]#N.[C-]#N.[C-]#N.[C-]#N.[C-]#N.[C-]#N.[Fe+2].[Na+].[Na+].[Na+].[Na+]", "note": "[Na4Fe(CN)6.10H2O]", "values": [{"measurement": "concentration reported upon saturating 2 M NaOH", "value": "~0.6", "unit": "M"}]}]}
